Patent publication US20120004244A1, “Bis Aromatic Compounds for Use as LTC4 Synthase Inhibitors” (BIOLIPOX AB, priority 2009, published 2012)
pIC50: −log10 of the molar value.

Biological target: T1, Recombinant human LTC4 synthase (Homo sapiens, UniProt Q16873)
T1 construct: made in house; host or cells: Pichia pastoris ('Piccia pastoralis' [sic])
T1 sequence (Q16873 1-150): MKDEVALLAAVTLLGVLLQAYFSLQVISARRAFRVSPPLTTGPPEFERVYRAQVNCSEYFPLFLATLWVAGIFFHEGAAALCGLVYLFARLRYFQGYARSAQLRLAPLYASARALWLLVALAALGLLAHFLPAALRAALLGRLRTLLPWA
Test: LTC4 synthase in vitro assay (LTA4 to LTC4, HTRF detection)
Assay type: biochemical
Conditions: for inhibition at 10 µM: 5 min, total concentration of title compound in the assay 10 μM
In short: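 Purified recombinant human LTC4 synthase expressed in Pichia (0.5 μg/mL total protein) was preincubated with inhibitor at 10 μM final for 10 min at room temperature in PBS pH 7.4 with 5 mM GSH. LTA4 was then added at 2.5 μM final, and after 5 min at room temperature LTC4 was detected by HTRF.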

pIC50	inhibition at 10 µM [%]	Structure (SMILES)
6.74		CN(c1ccc(Cl)cc1)c1ccc(C(=O)c2ccc(OCc3ccccc3Cl)c(C(=O)O)c2)nc1 [12:2, 2-(2-Chlorobenzyloxy)-5-{5-[(4-chlorophenyl)(methyl)amino]picolinoyl}benzoic acid]
6.94	98	CN(c1ccc(Cl)cc1)c1ccc(C(=O)c2ccc(-n3nncc3-c3ccccc3)c(C(=O)O)c2)nc1 [17:1, 5-{5-[(4-Chlorophenyl)(methyl)amino]picolinoyl}-2-(5-phenyl-1,2,3-triazol-1-yl)-benzoic acid]
7.35	100	O=C(c1ccc(-n2nncc2-c2ccccc2)c(C(=O)O)c1)c1ccc(N(CC2CC2)c2ccc(Cl)cc2)cn1 [17:3, 5-{5-[(4-Chlorophenyl)(cyclopropylmethyl)amino]picolinoyl}-2-(5-phenyl-1,2,3-triazol-1-yl)benzoic acid]
6.75		CN(c1ccc(Cl)cc1)c1ccc(C(=O)c2ccc(-n3nc(C(F)(F)F)cc3-c3ccccc3)c(C(=O)O)c2)nc1 [18:3]
7.19		O=C(c1ccc(-n2nc(-c3ccccc3)cc2C(F)(F)F)c(C(=O)O)c1)c1ccc(N(CC2CC2)c2ccc(Cl)cc2)cn1 [18:4, 5-{5-[(4-Chlorophenyl)(cyclopropylmethyl)amino]picolinoyl}-2-(3-phenyl-5-trifluoromethylpyrazol-1-yl)benzoic acid]
6.94		CN(c1ccc(Cl)cc1)c1ccc(C(=O)c2ccc(-n3nc(-c4ccc(Cl)cc4)cc3C(F)(F)F)c(C(=O)O)c2)nc1 [18:6, 5-{5-[(4-Chlorophenyl)(methyl)amino]picolinoyl}-2-[3-(4-chlorophenyl)-5-trifluoromethylpyrazol-1-yl]benzoic acid]
6.63		Cc1cn(-c2ccc(C(=O)c3ccc(N(C)c4ccc(Cl)cc4)cn3)cc2C(=O)O)c(-c2ccccc2)n1 [19:1, 5-{5-[(4-Chlorophenyl)(methyl)amino]picolinoyl}-2-(4-methyl-2-phenylimidazol-1-yl)benzoic acid]
7.19		CN(c1ccc(Cl)cc1)c1ccc(C(=O)c2ccc(-n3cccc3-c3ccccc3)c(C(=O)O)c2)nc1 [20:2, 5-{5-[(4-Chlorophenyl)(methyl)amino]picolinoyl}-2-(2-phenylpyrrol-1-yl)benzoic acid]
6.86		CN(c1ccc(Cl)cc1)c1ccc(C(=O)c2ccc(-c3ccccc3C(F)(F)F)c(C(=O)O)c2)nc1 [21:1, 4-{5-[(4-Chlorophenyl)methylamino]pyridine-2-carbonyl}-2′-trifluoromethyl-biphenyl-2-carboxylic acid]
6.46		CN(c1ccc(Cl)cc1)c1ccc(C(=O)c2ccc(-c3ccccc3Cl)c(C(=O)O)c2)nc1 [21:3, 2′-Chloro-4-{5-[(4-chlorophenyl)(methyl)amino]picolinoyl}biphenyl-2-carboxylic acid]
6.15		CN(c1ccc(Cl)cc1)c1ccc(C(=O)c2ccc(-c3cccc(Cl)c3)c(C(=O)O)c2)nc1 [21:4, 3′-Chloro-4-{5-[(4-chlorophenyl)(methyl)amino]picolinoyl}biphenyl-2-carboxylic acid]

The remaining lines, values behind:

Structure (SMILES)	pIC50	inhibition at 10 µM [%]
CN(c1ccc(Cl)cc1)c1ccc(C(=O)c2ccc(OCc3ccc(Cl)cc3)c(C(=O)O)c2)nc1 [12:3, 2-(4-Chlorobenzyloxy)-5-{5-[(4-chlorophenyl)(methyl)amino]picolinoyl}benzoic acid]	6.44	
CN(c1ccc(Cl)cc1)c1ccc(C(=O)c2ccc(OCc3ccc(F)c(F)c3)c(C(=O)O)c2)nc1 [12:4, 5-{5-[(4-Chlorophenyl)(methyl)amino]picolinoyl}-2-(3,4-difluorobenzyloxy)-benzoic acid]	6.82	
CN(c1ccc(Cl)cc1)c1ccc(C(=O)c2ccc(OCc3ccc4c(c3)OCO4)c(C(=O)O)c2)nc1 [12:5, 5-{5-[(4-Chlorophenyl)(methyl)amino]picolinoyl}2-(3,4-methylenedioxy-benzyloxy)benzoic acid]	6.78	
COc1cccc(COc2ccc(C(=O)c3ccc(N(C)c4ccc(Cl)cc4)cn3)cc2C(=O)O)c1 [12:6, 5-{5-[(4-Chlorophenyl)(methyl)amino]picolinoyl}-2-(3-methoxybenzyloxy)-benzoic acid]	6.66	
CN(c1ccc(Cl)cc1)c1ccc(C(=O)c2ccc(OCc3ccccc3)c(C(=O)O)c2)nc1 [12:7, 2-Benzyloxy-5-{5-[(4-chlorophenyl)(methyl)amino]picolinoyl}benzoic acid]	6.43	
O=C(c1ccc(-n2nncc2-c2cccc(Cl)c2)c(C(=O)O)c1)c1ccc(N(CC2CC2)c2ccc(Cl)cc2)cn1 [17:4, 5-{5-[(4-Chlorophenyl)(cyclopropylmethyl)amino]picolinoyl}-2-(5-(3-chlorophenyl)-1,2,3-triazol-1-yl)benzoic acid]	7.80	
O=C(c1ccc(-n2nncc2-c2ccc(F)cc2)c(C(=O)O)c1)c1ccc(N(CC2CC2)c2ccc(Cl)cc2)cn1 [17:5, 5-{5-[(4-Chlorophenyl)(cyclopropylmethyl)amino]picolinoyl}-2-(5-(4-fluorophenyl)-1,2,3-triazol-1-yl)benzoic acid]	7.25	
O=C(c1ccc(-n2nncc2-c2ccccn2)c(C(=O)O)c1)c1ccc(N(CC2CC2)c2ccc(Cl)cc2)cn1 [17:6, 5-{5-[(4-Chlorophenyl)(cyclopropylmethyl)amino]picolinoyl}-2-(5-(pyridin-2-yl)-1,2,3-triazol-1-yl)benzoic acid]	6.97	
O=C(c1ccc(-n2nc(C(F)(F)F)cc2-c2ccccc2)c(C(=O)O)c1)c1ccc(N(CC2CC2)c2ccc(Cl)cc2)cn1 [18:1, 5-{5-[(4-Chlorophenyl)(cyclopropylmethyl)amino]picolinoyl}-2-(5-phenyl-3-trifluoro-methylpyrazol-1-yl)benzoic acid]	6.53	
CN(c1ccc(Cl)cc1)c1ccc(C(=O)c2ccc(-n3nc(-c4ccccc4)cc3C(F)(F)F)c(C(=O)O)c2)nc1 [18:2, 5-{5-[(4-Chlorophenyl)(methyl)amino]picolinoyl}-2-(3-phenyl-5-trifluoro-methylpyrazol-1-yl)benzoic acid]	6.98	
CN(c1ccc(Cl)cc1)c1ccc(C(=O)c2ccc(-n3nc(-c4cccc(Cl)c4)cc3C(F)(F)F)c(C(=O)O)c2)nc1 [18:5, 5-{5-[(4-Chlorophenyl)(methyl)amino]picolinoyl}-2-[3-(3-chlorophenyl)-5-trifluoromethylpyrazol-1-yl]benzoic acid]	6.94	
CN(c1ccc(Cl)cc1)c1ccc(C(=O)c2ccc(-n3nc(C(F)(F)F)cc3-c3ccc(Cl)cc3)c(C(=O)O)c2)nc1 [18:7, 5-{5-[(4-Chlorophenyl)(methyl)amino]picolinoyl}-2-[5-(4-chlorophenyl)-3-trifluoromethylpyrazol-1-yl]benzoic acid]	6.60	
CN(c1ccc(Cl)cc1)c1ccc(C(=O)c2ccc(-n3ccnc3-c3ccccc3)c(C(=O)O)c2)nc1 [19:2, 5-{5-[(4-Chlorophenyl)(methyl)amino]picolinoyl}-2-(2-phenylimidazol-1-yl)benzoic acid]	6.31	
CN(c1ccc(Cl)cc1)c1ccc(C(=O)c2ccc(-n3cccc3-c3cccc(Cl)c3)c(C(=O)O)c2)nc1 [20:1, 5-{5-[(4-Chlorophenyl)(methyl)amino]picolinoyl}-2-{2-(3-chlorophenyl)pyrrol-1-yl}benzoic acid]	6.79	
CN(c1ccc(Cl)cc1)c1ccc(C(=O)c2ccc(-c3ccc(Cl)cc3Cl)c(C(=O)O)c2)nc1 [21:2, 2′,4′-Dichloro-4-{5-[(4-chlorophenyl)(methyl)amino]picolinoyl}biphenyl-2-carboxylic acid]	6.58	
